Measured values published in ChEMBL document CHEMBL1134205, “Development of novel telomerase inhibitors based on a bisindole unit” (Bioorg Med Chem Lett, 2001).

Key:
[1] = target: T1, Telomerase reverse transcriptase (Homo sapiens, UniProt O14746); experiment: Inhibitory concentration against human telomerase
[2] = target: T1, Telomerase reverse transcriptase; experiment: Inhibition ratio of human telomerase was determined by stretch PCR assay with use of 100 uM of the ligand

T1 sequence (O14746 whole entry): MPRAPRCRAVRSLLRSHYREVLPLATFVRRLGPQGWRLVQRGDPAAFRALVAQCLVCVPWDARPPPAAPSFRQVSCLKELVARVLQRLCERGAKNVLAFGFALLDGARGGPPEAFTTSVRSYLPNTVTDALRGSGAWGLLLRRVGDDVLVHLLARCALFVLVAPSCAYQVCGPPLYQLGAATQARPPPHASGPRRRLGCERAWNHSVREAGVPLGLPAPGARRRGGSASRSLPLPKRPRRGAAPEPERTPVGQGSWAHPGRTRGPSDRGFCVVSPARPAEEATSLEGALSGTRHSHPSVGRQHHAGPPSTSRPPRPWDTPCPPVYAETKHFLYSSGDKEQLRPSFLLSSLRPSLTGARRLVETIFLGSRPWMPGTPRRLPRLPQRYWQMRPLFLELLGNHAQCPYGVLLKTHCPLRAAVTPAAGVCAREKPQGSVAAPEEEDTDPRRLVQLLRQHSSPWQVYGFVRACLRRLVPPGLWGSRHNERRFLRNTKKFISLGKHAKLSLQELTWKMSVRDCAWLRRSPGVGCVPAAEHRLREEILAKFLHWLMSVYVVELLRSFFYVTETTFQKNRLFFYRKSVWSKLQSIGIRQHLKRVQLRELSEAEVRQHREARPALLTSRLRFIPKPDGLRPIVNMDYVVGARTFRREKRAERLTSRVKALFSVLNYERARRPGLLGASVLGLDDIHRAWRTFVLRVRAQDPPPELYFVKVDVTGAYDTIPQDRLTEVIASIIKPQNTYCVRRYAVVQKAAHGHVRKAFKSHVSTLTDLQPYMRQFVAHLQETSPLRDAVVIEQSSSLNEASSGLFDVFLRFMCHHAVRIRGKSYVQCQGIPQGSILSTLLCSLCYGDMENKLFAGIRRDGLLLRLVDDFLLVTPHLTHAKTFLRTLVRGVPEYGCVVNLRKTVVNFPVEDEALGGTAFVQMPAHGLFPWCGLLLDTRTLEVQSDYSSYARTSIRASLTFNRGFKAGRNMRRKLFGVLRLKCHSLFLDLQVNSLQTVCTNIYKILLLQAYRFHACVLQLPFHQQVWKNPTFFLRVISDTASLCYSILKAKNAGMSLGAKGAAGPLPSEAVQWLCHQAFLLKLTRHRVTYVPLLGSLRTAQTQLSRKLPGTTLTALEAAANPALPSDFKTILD

Row | IC50 [1] [µM] | inhibition [2] [%] | SMILES
1 | 33 | 75 | O=C(O)CCCCCCCCCCCNC(=O)Cc1cn(CCCOc2ccccc2)c2ccccc12
2 | > 100 | 7 | Cc1cn(CCn2cc(CC(=O)NCCCCCCCCCCCC(=O)O)c3ccccc32)c2ccccc12
3 | 20 | 100 | Cc1cn(CCCn2cc(CC(=O)NCCCCCCCCCCCC(=O)O)c3ccccc32)c2ccccc12
4 |  | 0 | O=C(O)CCCCCCCCCCCNC(=O)Cc1cn(CCOc2ccccc2)c2ccccc12
5 | > 100 | 0 | O=C(O)CCCCCCCCCCCNC(=O)Cc1cn(CCCn2cccc2)c2ccccc12
6 | 35 | 65 | O=C(O)CCCCCCCCCCCNC(=O)Cc1cn(CCOc2cccc3ccccc23)c2ccccc12
7 | 41 | 77 | O=C(O)CCCCCCCCCCCNC(=O)Cc1cn(CCn2ccc3ccccc32)c2ccccc12
8 | 92 | 46 | O=C(O)CCCCCCCCCCCNC(=O)Cc1cn(CCCn2ccc3ccccc32)c2ccccc12

Further lines, the molecule ahead of its results:

Row | SMILES | IC50 [1] [µM] | inhibition [2] [%]
9 | Cc1cn(CCCn2cc(CC(=O)NCCCCCCCCCCCCOP(=O)(OCCC#N)Oc3cccc(Cl)c3)c3ccccc32)c2ccccc12 (configuration not stated) | > 100 | 
10 | Cc1c2n(c3ccccc13)CCCn1c-2c(CC(=O)NCCCCCCCCCCCC(=O)O)c2ccccc21 | 50 | 82
11 | O=C(Cc1cn(CCn2ccc3cc(Cl)ccc32)c2ccccc12)NCCCCCCCCCCCCOP(=O)(O)OC1CCCCC1 | 8.7 | 
12 | N#CCCOP(=O)(OCCCCCCCCCCCCNC(=O)Cc1cn(CCn2ccc3cc(Cl)ccc32)c2ccccc12)Oc1cccc(Cl)c1 (configuration not stated) | > 100 | 
13 | O=C(Cc1cn(CCn2ccc3cc(Cl)ccc32)c2ccccc12)NCCCCCCCCCCCCOP(=O)(O)Oc1ccccc1 | 6.7 | 
14 | Cc1cn(CCCn2cc(CC(=O)NCCCCCCCCCCCCOP(=O)(O)Oc3cccc(Cl)c3)c3ccccc32)c2ccccc12 | 3.4 | 
15 | O=C(Cc1cn(CCCn2cccc2)c2ccccc12)NCCCCCCCCCCCOP(=O)(O)c1ccccc1Cl | 4.2 | 
16 | O=C(O)CCCCCCCCCCCNC(=O)Cc1c2n(c3ccccc13)CCn1c-2cc2ccccc21 | 62 | 62
17 | O=C(Cc1cn(CCn2ccc3cc(Cl)ccc32)c2ccccc12)NCCCCCCCCCCCCOP(=O)(O)Oc1cccc(Cl)c1 | 2.5 | 
18 | O=C(O)CCCCCCCCCCCNC(=O)COc1c(-c2cc3ccccc3[nH]2)[nH]c2ccccc12 | > 100 | 
19 | O=C(O)CCCCCCCCCCCNC(=O)Cc1cn(CCCN2CCCC2)c2ccccc12 | > 100 | 13
20 | N#CCCOP(=O)(O)OCCCCCCCCCCCCNC(=O)Cc1cn(CCn2ccc3cc(Cl)ccc32)c2ccccc12 | > 100 | 
21 | O=C(O)CCCCCCCCCCCNC(=O)Cc1cn(CCCOC2CCCCC2)c2ccccc12 | 67 | 75
